Laboratory results taken from US10201532B2, “Compounds and their use” (ALLECRA THERAPEUTICS GMBH, priority 2010, dated 2019).

Key:
[1] = system: KPC2 K. pneumoniae ATCC BAA 1705; assay: Neutropenic mice thigh infection model (human adapted model); format: in vivo; conditions: Doripenem 70 mg/kg fractionated + BLI 35 mg/kg bolus; end point 8 h
[2] = system: KPC-2 producing K. pneumoniae (ATCC BAA-1705); assay: Synergistic broth micro-dilution MIC (checkerboard); format: cell-based, Klebsiella pneumoniae; conditions: ATCC BAA-1705
[3] = system: E. cloacae 01 MGH 049 (KPC2, AmpC); assay: Synergistic broth micro-dilution MIC; format: cell-based; conditions: BLI at 4 μg/mL
[4] = system: KPC-3 expressing E. coli (J53 R6206); assay: Synergistic broth micro-dilution MIC (checkerboard); format: cell-based, Escherichia coli
[5] = system: K. pneumoniae UMM3 (KPC2); assay: Synergistic broth micro-dilution MIC; format: cell-based, Klebsiella pneumoniae; conditions: BLI at 4 μg/mL

## C[C@]1(Cn2ccnn2)[C@H](C(=O)O)N2C(=O)C[C@H]2S1(=O)=O [Tazobactam]
[1]
  Bacterial load (range), Doripenem + BLI: 1.19 × 10^7-1.6 × 10^7 CFU/thigh
[2]; BLI at 1 μg/mL
  MIC of Cefquinome in combination with BLI: >64 µg/mL
  MIC of Ceftiofur in combination with BLI: >64 µg/mL
[2]; BLI at 2 μg/mL
  MIC of Cefepime in combination with BLI: 64 µg/mL
  MIC of Cefotaxime in combination with BLI: ≥64 µg/mL
  MIC of Cefquinome in combination with BLI: >64 µg/mL
  MIC of Ceftazidime in combination with BLI: >64 µg/mL
  MIC of Ceftiofur in combination with BLI: >64 µg/mL
  MIC of Ceftobiprole in combination with BLI: >64 µg/mL
  MIC of Imipenem in combination with BLI: 16 µg/mL
  MIC of Meropenem in combination with BLI: 32 µg/mL
[2]; BLI at 4 μg/mL
  MIC of Aztreonam in combination with BLI: >64 µg/mL
  MIC of Cefadroxil in combination with BLI: >64 µg/mL
  MIC of Cefalonium in combination with BLI: >64 µg/mL
  MIC of Cefepime in combination with BLI: 64 µg/mL
  MIC of Cefotaxime in combination with BLI: 32 to 64 µg/mL
  MIC of Cefquinome in combination with BLI: >64 µg/mL
  MIC of Ceftazidime in combination with BLI: >64 µg/mL
  MIC of Ceftiofur in combination with BLI: >64 µg/mL
  MIC of Ceftobiprole in combination with BLI: >64 µg/mL
  MIC of Ertapenem in combination with BLI: >64 µg/mL
  MIC of Faropenem in combination with BLI: >64 µg/mL
  MIC of Imipenem in combination with BLI: 16 µg/mL
  MIC of Meropenem in combination with BLI: 32 µg/mL
[2]; BLI at 8 μg/mL
  MIC of Cefepime in combination with BLI: 32 µg/mL
  MIC of Cefotaxime in combination with BLI: 32 µg/mL
  MIC of Cefquinome in combination with BLI: 64 µg/mL
  MIC of Ceftazidime in combination with BLI: >64 µg/mL
  MIC of Ceftiofur in combination with BLI: >64 µg/mL
  MIC of Ceftobiprole in combination with BLI: >64 µg/mL
  MIC of Ertapenem in combination with BLI: >64 µg/mL
  MIC of Faropenem in combination with BLI: >64 µg/mL
  MIC of Imipenem in combination with BLI: 8 to 16 µg/mL
  MIC of Meropenem in combination with BLI: 16 to 32 µg/mL
[2]; BLI at 16 μg/mL
  MIC of Aztreonam in combination with BLI: >64 µg/mL
  MIC of Cefadroxil in combination with BLI: >64 µg/mL
  MIC of Cefalonium in combination with BLI: >64 µg/mL
  MIC of Cefepime in combination with BLI: 32 µg/mL
  MIC of Cefotaxime in combination with BLI: 32 µg/mL
  MIC of Cefquinome in combination with BLI: 64 µg/mL
  MIC of Ceftazidime in combination with BLI: >64 µg/mL
  MIC of Ceftiofur in combination with BLI: >64 µg/mL
  MIC of Ceftobiprole in combination with BLI: >64 µg/mL
  MIC of Ertapenem in combination with BLI: 64 µg/mL
  MIC of Faropenem in combination with BLI: >64 µg/mL
  MIC of Imipenem in combination with BLI: 8 µg/mL
  MIC of Meropenem in combination with BLI: 8 to 16 µg/mL
[2]; BLI at 32 μg/mL
  MIC of Cefquinome in combination with BLI: 64 µg/mL
  MIC of Ceftiofur in combination with BLI: 64 µg/mL
[2]; BLI at 64 μg/mL
  MIC of Aztreonam in combination with BLI: >64 µg/mL
  MIC of Cefadroxil in combination with BLI: >64 µg/mL
  MIC of Cefalonium in combination with BLI: >64 µg/mL
  MIC of Cefepime in combination with BLI: 32 µg/mL
  MIC of Cefotaxime in combination with BLI: 32 µg/mL
  MIC of Cefquinome in combination with BLI: 64 µg/mL
  MIC of Ceftazidime in combination with BLI: 64 µg/mL
  MIC of Ceftiofur in combination with BLI: 64 µg/mL
  MIC of Ceftobiprole in combination with BLI: >64 µg/mL
  MIC of Ertapenem in combination with BLI: 32 µg/mL
  MIC of Faropenem in combination with BLI: >64 µg/mL
  MIC of Imipenem in combination with BLI: 4 to 8 µg/mL
  MIC of Meropenem in combination with BLI: 4 µg/mL
[3]
  MIC of Imipenem in combination with BLI: 8 µg/mL
[4]; BLI at 2 μg/mL
  MIC of Cefepime in combination with BLI: 16 µg/mL
  MIC of Cefotaxime in combination with BLI: 8 µg/mL
  MIC of Ceftazidime in combination with BLI: 32 µg/mL
  MIC of Ceftobiprole in combination with BLI: 32 µg/mL
  MIC of Imipenem in combination with BLI: 2 µg/mL
  MIC of Meropenem in combination with BLI: 1 µg/mL
[4]; BLI at 4 μg/mL
  MIC of Cefepime in combination with BLI: 8 µg/mL
  MIC of Cefotaxime in combination with BLI: 8 µg/mL
  MIC of Ceftazidime in combination with BLI: 32 µg/mL
  MIC of Ceftobiprole in combination with BLI: 16 µg/mL
  MIC of Imipenem in combination with BLI: 2 µg/mL
  MIC of Meropenem in combination with BLI: 0.5 µg/mL
[4]; BLI at 8 μg/mL
  MIC of Cefepime in combination with BLI: 4 µg/mL
  MIC of Cefotaxime in combination with BLI: 4 µg/mL
  MIC of Ceftazidime in combination with BLI: 32 µg/mL
  MIC of Ceftobiprole in combination with BLI: 16 µg/mL
  MIC of Imipenem in combination with BLI: 1 µg/mL
  MIC of Meropenem in combination with BLI: 0.5 µg/mL
[4]; BLI at 16 μg/mL
  MIC of Imipenem in combination with BLI: 1 µg/mL
  MIC of Meropenem in combination with BLI: <0.125 µg/mL
[4]; Escherichia coli, read-out: MIC of BLI alone, BLI alone
  MIC: > 8 µg/mL
[5]
  MIC of Imipenem in combination with BLI: 4 µg/mL
